The source of these data is ChEMBL document CHEMBL5325467, “Discovery of novel hypoxia-activated, nitroimidazole constructed multi-target kinase inhibitors on the basis of AZD9291 for the treatment of human lung cancer” (Bioorg Med Chem, 2023).

Series [1] in a line: Reductive activation in PBS at pH 7.4 assessed as A14-1 metabolite formation at 1 uM incubated for 30 mins in presence of cysteine, NADPH and nitroreductase under N2 condition by MS/MS analysis. Type of series: ADME. As to conditions: buffer, pH 7.4, 0.5 h.
Series [2] has as its target 3-phosphoinositide-dependent protein kinase 1 (Homo sapiens) (UniProt O15530). Nature of the series: Inhibition of PDK1 (unknown origin) at 1 uM relative to control.
Series [3] in a line: Ratio of IC50 for antiproliferative activity against human HCC827 cells harboring EGFR del19 mutant under normoxia condition to IC50 for antiproliferative activity against human HCC827 cells harboring EGFR del19 mutant under hypoxia condition. Type of series: functional.
The test system of a further series is NCI-H1975. Nature of the series: Antiproliferative activity against human NCI-H1975 cells harboring EGFR L858R/T790M mutant assessed as inhibition of cell growth incubated for 72 hrs under normoxia condition by SRB assay. The following applies: NCI-H1975, 72 h. Type of series: functional, cell-based. On the technique in general: The SRB assay estimates cell density from bound dye.

In series [4] the target is T1, Epidermal growth factor receptor (Homo sapiens, UniProt P00533). Description: Inhibition of wild type EGFR (unknown origin) by mobility shift assay.
T1 sequence (P00533 whole entry): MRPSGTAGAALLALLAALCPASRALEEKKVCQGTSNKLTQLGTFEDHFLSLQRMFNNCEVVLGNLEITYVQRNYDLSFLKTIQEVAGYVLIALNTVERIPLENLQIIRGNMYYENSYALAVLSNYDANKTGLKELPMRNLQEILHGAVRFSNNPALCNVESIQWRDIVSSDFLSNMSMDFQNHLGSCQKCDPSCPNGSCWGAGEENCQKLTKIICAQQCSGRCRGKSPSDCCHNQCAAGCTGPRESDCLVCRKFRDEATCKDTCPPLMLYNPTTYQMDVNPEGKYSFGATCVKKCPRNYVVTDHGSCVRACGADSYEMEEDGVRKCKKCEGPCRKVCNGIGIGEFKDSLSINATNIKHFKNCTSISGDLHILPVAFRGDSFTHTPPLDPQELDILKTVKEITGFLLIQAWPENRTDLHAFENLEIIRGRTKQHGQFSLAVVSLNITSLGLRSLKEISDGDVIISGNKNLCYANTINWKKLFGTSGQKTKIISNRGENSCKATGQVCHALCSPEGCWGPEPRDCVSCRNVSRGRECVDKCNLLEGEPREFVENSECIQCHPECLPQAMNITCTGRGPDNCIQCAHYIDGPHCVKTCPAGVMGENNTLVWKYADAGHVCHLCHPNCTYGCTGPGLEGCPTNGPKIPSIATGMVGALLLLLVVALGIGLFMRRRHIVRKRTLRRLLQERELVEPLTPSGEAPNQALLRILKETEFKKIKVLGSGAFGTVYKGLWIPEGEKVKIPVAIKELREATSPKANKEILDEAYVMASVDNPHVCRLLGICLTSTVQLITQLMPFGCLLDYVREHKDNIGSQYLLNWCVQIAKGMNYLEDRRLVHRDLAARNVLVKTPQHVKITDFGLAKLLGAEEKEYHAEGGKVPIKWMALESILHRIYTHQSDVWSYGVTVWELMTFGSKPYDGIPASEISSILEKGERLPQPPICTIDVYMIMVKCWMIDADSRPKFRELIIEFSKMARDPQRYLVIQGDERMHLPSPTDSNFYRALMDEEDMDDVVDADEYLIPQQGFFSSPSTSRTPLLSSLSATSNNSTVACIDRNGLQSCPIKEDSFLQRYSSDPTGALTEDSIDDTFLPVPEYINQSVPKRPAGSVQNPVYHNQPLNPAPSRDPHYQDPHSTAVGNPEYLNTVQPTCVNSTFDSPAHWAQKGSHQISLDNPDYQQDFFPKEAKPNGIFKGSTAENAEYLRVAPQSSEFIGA
The target of series [5] is Platelet-derived growth factor receptor alpha (Homo sapiens, UniProt P16234). Description: Inhibition of PDGFRalpha (unknown origin).
Series [6] deals with Receptor tyrosine-protein kinase erbB-2 (Homo sapiens) (UniProt P04626). Description: Inhibition of HER2 (unknown origin) at 1 uM relative to control.
The nature of series [7]: Reductive activation in PBS at pH 7.4 assessed as A14-1 metabolite formation at 1 uM incubated for 30 mins in presence of cysteine, NADPH and nitroreductase under hypoxia condition by MS/MS analysis. Type of series: ADME. The following applies: buffer, pH 7.4, 0.5 h.
Series [8] has as its target Proto-oncogene tyrosine-protein kinase ROS (Homo sapiens, UniProt P08922). Description: Inhibition of ROS1 (unknown origin) at 1 uM relative to control.
Series [9] concerns the target Vascular endothelial growth factor receptor 3 (Homo sapiens, UniProt P35916). Nature of the series: Inhibition of FLT4 (unknown origin) at 1 uM relative to control.
The target in series [10] is Vascular endothelial growth factor receptor 2 (Homo sapiens) (UniProt P35968). Description: Inhibition of KDR (unknown origin) at 1 uM relative to control.
Sequence of Vascular endothelial growth factor receptor 2 (Homo sapiens) (P35968 whole entry): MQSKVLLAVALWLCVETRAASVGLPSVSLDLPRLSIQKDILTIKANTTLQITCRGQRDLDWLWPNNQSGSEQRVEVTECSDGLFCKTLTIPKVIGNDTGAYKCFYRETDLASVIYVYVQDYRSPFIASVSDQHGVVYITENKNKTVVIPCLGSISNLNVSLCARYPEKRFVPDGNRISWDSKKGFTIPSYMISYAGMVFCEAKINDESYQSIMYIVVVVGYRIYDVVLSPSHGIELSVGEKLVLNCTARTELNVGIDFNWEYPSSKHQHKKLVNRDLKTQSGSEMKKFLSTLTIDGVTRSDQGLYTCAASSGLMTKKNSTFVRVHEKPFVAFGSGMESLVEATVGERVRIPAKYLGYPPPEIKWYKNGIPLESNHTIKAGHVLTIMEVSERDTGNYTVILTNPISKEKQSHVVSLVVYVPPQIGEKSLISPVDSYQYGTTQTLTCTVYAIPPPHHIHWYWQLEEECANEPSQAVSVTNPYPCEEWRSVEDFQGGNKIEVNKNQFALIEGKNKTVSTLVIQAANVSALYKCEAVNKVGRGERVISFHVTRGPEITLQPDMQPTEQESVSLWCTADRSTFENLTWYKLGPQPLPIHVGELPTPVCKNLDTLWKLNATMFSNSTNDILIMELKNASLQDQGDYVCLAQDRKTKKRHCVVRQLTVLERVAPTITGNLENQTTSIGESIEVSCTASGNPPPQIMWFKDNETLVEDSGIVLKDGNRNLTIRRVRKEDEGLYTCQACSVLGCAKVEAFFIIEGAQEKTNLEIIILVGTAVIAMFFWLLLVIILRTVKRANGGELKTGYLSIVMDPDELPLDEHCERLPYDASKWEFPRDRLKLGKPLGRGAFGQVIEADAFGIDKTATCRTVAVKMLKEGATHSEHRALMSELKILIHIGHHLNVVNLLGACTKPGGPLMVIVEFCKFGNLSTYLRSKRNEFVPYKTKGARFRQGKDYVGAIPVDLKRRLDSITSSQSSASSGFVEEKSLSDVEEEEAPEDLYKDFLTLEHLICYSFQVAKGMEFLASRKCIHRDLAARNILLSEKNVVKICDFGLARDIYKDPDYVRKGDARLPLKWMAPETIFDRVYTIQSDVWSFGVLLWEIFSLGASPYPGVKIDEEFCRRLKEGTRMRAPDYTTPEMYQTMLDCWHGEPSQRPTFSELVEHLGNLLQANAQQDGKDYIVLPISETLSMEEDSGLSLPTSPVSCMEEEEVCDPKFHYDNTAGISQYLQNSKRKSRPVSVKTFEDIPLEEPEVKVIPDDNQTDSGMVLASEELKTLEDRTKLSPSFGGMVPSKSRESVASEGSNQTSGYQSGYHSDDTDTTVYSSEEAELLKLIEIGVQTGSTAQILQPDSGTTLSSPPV
The target of series [11] is Tyrosine-protein kinase SYK (Homo sapiens) (UniProt P43405). Description: Inhibition of SYK (unknown origin) at 1 uM relative to control.
Series [12] deals with Receptor-type tyrosine-protein kinase FLT3 (Homo sapiens, UniProt P36888). Description: Inhibition of FLT3 (unknown origin).
Sequence of Receptor-type tyrosine-protein kinase FLT3 (P36888 whole entry): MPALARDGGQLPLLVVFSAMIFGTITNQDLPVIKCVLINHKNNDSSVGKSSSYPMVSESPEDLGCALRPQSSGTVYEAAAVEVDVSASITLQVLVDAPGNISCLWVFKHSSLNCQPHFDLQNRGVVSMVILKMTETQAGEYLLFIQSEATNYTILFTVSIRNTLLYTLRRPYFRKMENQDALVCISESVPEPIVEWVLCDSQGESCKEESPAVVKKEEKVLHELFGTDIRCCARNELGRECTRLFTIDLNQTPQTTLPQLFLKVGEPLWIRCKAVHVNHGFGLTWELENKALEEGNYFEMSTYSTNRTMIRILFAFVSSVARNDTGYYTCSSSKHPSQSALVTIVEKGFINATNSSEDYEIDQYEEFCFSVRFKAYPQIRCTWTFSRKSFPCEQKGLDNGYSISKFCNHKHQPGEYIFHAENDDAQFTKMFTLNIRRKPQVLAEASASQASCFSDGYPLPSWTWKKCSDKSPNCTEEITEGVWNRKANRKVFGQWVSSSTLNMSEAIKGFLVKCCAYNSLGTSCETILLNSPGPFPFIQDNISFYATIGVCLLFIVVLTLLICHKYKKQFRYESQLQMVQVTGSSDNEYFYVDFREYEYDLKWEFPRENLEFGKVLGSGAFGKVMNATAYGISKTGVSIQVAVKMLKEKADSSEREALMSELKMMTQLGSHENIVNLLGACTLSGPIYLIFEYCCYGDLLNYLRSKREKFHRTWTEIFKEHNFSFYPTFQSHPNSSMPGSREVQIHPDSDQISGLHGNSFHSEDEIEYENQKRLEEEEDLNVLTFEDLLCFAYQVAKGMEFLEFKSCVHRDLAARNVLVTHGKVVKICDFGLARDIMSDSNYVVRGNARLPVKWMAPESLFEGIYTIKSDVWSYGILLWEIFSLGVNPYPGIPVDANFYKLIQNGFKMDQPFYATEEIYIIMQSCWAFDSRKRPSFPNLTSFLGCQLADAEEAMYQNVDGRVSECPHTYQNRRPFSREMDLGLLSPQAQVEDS
Series [13] deals with Focal adhesion kinase 1 (Homo sapiens) (UniProt Q05397). Description: Inhibition of FAK (unknown origin) at 1 uM relative to control.
Series [14] concerns the target Tyrosine-protein kinase JAK3 (Homo sapiens) (UniProt P52333). Nature of the series: Inhibition of JAK3 (unknown origin) at 1 uM relative to control.
Series [15] concerns the target T1, Epidermal growth factor receptor. Description: Inhibition of EGFR (unknown origin) at 1 uM relative to control.

Sequence of Vascular endothelial growth factor receptor 3 (P35916 whole entry): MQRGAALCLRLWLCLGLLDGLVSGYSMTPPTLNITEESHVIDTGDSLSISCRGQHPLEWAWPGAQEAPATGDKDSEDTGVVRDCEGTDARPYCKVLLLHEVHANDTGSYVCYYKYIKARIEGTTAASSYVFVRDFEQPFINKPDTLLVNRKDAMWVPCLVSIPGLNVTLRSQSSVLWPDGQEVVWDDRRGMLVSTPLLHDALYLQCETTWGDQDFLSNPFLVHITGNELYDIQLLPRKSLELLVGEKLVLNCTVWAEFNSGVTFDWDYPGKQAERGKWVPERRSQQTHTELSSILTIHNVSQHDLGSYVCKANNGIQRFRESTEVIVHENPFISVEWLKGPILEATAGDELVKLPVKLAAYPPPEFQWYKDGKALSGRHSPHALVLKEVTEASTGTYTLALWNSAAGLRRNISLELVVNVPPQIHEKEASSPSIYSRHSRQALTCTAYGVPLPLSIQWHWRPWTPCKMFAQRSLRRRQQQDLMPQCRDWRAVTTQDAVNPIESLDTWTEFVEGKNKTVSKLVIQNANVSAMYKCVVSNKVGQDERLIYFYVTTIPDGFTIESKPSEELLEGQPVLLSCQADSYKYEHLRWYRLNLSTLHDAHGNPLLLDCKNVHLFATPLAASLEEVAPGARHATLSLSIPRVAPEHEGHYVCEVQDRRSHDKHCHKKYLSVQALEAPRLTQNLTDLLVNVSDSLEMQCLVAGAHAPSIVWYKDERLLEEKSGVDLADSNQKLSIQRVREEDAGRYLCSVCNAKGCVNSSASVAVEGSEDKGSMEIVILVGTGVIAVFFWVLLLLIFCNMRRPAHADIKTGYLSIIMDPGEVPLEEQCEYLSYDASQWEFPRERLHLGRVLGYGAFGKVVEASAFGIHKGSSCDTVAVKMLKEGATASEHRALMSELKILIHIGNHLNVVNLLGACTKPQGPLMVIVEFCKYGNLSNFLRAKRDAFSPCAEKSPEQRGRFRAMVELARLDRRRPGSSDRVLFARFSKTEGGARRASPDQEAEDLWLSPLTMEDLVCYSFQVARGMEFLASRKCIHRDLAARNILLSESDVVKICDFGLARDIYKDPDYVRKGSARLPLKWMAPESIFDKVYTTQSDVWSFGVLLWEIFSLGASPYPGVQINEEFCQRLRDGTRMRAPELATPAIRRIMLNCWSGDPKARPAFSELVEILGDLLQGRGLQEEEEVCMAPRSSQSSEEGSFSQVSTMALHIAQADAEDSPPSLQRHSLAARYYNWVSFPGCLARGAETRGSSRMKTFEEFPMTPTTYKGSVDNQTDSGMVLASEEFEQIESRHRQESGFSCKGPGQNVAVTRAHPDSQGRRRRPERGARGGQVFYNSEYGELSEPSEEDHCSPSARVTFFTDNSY

For `COc1ccc(Nc2nccc(-c3cn(C)c4ccccc34)n2)cc1OCCOCCn1ccnc1[N+](=O)[O-]`, the Drug metabolism entry in series [1] and in series [7] was “Metabolite_Detected” throughout. The inhibition amounted to 8% in [2]; 11.8% in series [6]; 84.7% in [8]; 85.7% in series [9]; 50% in series [10]; 17% in [11]. For the same compound, the inhibition in [13] is 9%; in [14], 43.2%; in series [15] it was 34.8%. Moreover, in [3], the “Ratio IC50” value is reported as 4.75. Moreover, the IC50 in the series with NCI-H1975 is 26.2 nM; in series [4], 1570 nM; in series [5], 42.5 nM; in [12] it was 108 nM.

The inhibition is the drop in the measured response relative to a control, in per cent. A high value points to a response far below the control. The term IC50 denotes the concentration needed to halve the response being measured.
